Assay results taken from ChEMBL document CHEMBL2074484, “Molecular cloning and characterization of two novel human renal organic anion transporters (hOAT1 and hOAT3)” (Biochem Biophys Res Commun, 1999).
Each block holds one compound with its values, some of them ahead of it.

Experiments:
Assay type in all cases: functional, cell-based
Settings in all cases: oocyte
[1] = biological target: T1, Organic anion transporter 3 (Homo sapiens, UniProt Q8TCC7); experiment: (§1) TP_TRANSPORTER: uptake in Xenopus laevis oocytes
T1 sequence (Q8TCC7 whole entry): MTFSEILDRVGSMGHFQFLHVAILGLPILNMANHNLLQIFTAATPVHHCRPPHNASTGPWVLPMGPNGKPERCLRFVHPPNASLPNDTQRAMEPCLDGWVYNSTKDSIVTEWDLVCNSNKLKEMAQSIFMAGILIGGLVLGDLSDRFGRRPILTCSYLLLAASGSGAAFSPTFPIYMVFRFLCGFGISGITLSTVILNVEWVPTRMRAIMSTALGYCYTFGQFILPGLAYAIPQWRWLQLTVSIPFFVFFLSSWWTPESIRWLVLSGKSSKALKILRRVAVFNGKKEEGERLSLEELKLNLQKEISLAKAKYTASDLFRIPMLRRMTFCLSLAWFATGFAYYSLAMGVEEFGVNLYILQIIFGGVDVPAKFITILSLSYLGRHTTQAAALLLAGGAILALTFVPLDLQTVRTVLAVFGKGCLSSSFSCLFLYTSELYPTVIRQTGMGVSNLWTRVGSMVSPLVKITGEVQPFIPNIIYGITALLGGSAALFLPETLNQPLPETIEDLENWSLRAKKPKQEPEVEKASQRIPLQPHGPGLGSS

[2] = biological target: T2, Solute carrier family 22 member 6 (Homo sapiens, UniProt Q4U2R8); experiment: TP_TRANSPORTER: inhibition of PAH uptake (PAH: 1 uM, Bumetamide: 100 uM) in Xenopus laevis oocytes
T2 sequence (Q4U2R8 whole entry): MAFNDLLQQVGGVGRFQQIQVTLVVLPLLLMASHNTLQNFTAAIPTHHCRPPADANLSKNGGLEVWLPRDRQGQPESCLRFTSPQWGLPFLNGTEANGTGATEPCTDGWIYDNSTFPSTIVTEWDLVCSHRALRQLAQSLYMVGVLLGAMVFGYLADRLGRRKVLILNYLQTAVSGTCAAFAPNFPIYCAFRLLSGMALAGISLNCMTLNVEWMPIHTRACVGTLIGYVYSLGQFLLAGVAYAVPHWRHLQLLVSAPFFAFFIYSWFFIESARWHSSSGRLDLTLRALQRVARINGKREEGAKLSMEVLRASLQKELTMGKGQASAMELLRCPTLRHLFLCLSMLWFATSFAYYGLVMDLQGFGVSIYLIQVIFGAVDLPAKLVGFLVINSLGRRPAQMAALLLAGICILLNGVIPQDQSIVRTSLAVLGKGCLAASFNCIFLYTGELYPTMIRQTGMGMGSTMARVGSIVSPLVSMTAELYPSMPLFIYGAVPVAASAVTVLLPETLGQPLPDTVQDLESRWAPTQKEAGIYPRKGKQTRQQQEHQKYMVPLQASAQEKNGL

[3] = biological target: T2, Solute carrier family 22 member 6; experiment: TP_TRANSPORTER: inhibition of PAH uptake (PAH: 1 uM, Hydrochlorothiazide: 100 uM) in Xenopus laevis oocytes
[4] = biological target: T2, Solute carrier family 22 member 6; experiment: TP_TRANSPORTER: inhibition of PAH uptake (PAH: 1 uM, Losartan: 100 uM) in Xenopus laevis oocytes
[5] = biological target: T2, Solute carrier family 22 member 6; experiment: as §1
[6] = biological target: T2, Solute carrier family 22 member 6; experiment: TP_TRANSPORTER: inhibition of PAH uptake (PAH: 1 uM, Urate: 100 uM) in Xenopus laevis oocytes

Compound: CCCCNc1cc(C(=O)O)cc(S(N)(=O)=O)c1Oc1ccccc1 [BUMETANIDE]
- Activity [2]: inhibitor [(at a rough estimate) 45 % of control]

Compound: NS(=O)(=O)c1cc2c(cc1Cl)NCNS2(=O)=O [HYDROCHLOROTHIAZIDE]
- Activity [3]: is not an inhibitor [-]

Compound: CCCCc1nc(Cl)c(CO)n1Cc1ccc(-c2ccccc2-c2nn[nH]n2)cc1 [LOSARTAN]
- Activity [4]: inhibitor [(at a rough estimate) 25 % of control]

Compound: O=C([O-])C(=O)[O-].[Na+].[Na+] [SODIUM OXALATE]
- Activity [1]: is not a substrate [-]

Compound: O=c1[nH]c(=O)c2[nH]c(=O)[nH]c2[nH]1 [URIC ACID]
- Activity [1]: is not a substrate [-]
- Activity [5]: is not a substrate [-]
- Activity [6]: is not an inhibitor [-]

The next lines start with the values.

- Activity [1]: is not a substrate [-]
Compound: Nc1ccc(C(=O)NCC(=O)O)cc1 [AMINOHIPPURIC ACID]

- Activity [1]: is not a substrate [-]
Compound: CC[N+](CC)(CC)CC [TETRYLAMMONIUM]
